Like-named read-outs stand apart in the source and are kept apart here.
How the values were obtained:
[1] = test system: P. falciparum stage V gametocytes; assay: Gametocytocidal ATP bioluminescence assay (single point 5 μM and 1 μM, dose-response); format: cell-based, Plasmodium falciparum; details: for Ratio IC50 HepG2/IC50 P. falciparum: IC50 HepG2 divided by IC50 P. falciparum gametocytes
Description: Purified stage IV-V gametocytes were obtained as previously described [10]. Single point ATP bioluminescence assay and dose–response of positive hits was determined in accordance with the previously published protocol [10].

HepG2 cells = assay: Cytotoxicity in HepG2 cells (intracellular ATP, ATPlite, 48 h); format: cell-based, human; details: HepG2 cells; IC50 per ratio column head; unit inferred
[2] = test system: P. falciparum asexual stages; details: asexual stages; TCAMS data; read-out: IC50 asexual; cited from earlier work
[3] = P. falciparum gametocytes, average, read-out: IC50 Pf Gametocytes average, IC50 (µM) average
[4] = sexual stages (gametocytes), dose-response, read-out: IC50 sexual

Row | Compound | Ratio IC50 HepG2/IC50 P. falciparum [1] | IC50 [1, 3] [µM] | IC50 (HepG2 cells) [nM] | IC50 [2] [nM] | IC50 [1, 4] [µM]
1 | CN(C)CCN(Cc1ccccc1-c1ccc(CNCCc2ccccc2)cc1)C(=O)NC1CCCCC1 [TCMDC-140626] | 18 | 0.35 | 6400 | 906 | 
2 | CCCOc1ccc2ccccc2c1CNCCCCCCNCc1c(OCCC)ccc2ccccc12 [TCMDC-137966] | 9 | 0.34 | 3100 | 791 | 
3 | CCN(CC)CCOc1ccc(C(O)(C#CC(O)(c2ccc(C)cc2)c2ccc(OCCN(CC)CC)cc2)c2ccc(C)cc2)cc1 (stereo not drawn) [TCMDC-137198] | 12 | 0.14 | 1620 | 903 | 
4 | COc1ccc2c(c1CCNCCCCNCCc1c(OC)ccc3c1CCCC3)CCCC2 [TCMDC-137324] | 5 | 0.15 | 750 | 376 | 
5 | O=C(NCCc1ccccc1)N(Cc1cccc(-c2ccc(CNC3CCCC3)cc2)c1)C1CCN(Cc2ccccc2)CC1 [TCMDC-140618] | 5.66 | 1.31 | 7420 | 404 | 
6 | CCn1c(-c2nonc2N)nc2c(-c3cccc(NC(=O)Nc4cccc(C#N)c4)c3)ncc(OCCCN)c21 [TCMDC-136195] | 7 | 3.51 | 24700 | 669 | 3.52
7 | COc1ccc(C[C@H]2NC[C@H](O)[C@H]2OC(C)=O)cc1 [TCMDC-125504] | 1.1 | 0.17 | 190 | 138 | 0.173
8 | COc1cccc(OC)c1CN1CCC(N(C)CCCCCCCCN2CCC(OC(=O)Nc3ccccc3-c3ccccc3)CC2)CC1 [TCMDC-134684] | 3.29 | 1.04 | 3400 | 458 | 1.03
9 | CCn1c(-c2nonc2N)nc2c(-c3cccc(NC(=O)Nc4cccc(Cl)c4)c3)ncc(OCCCN)c21 [TCMDC-136193] | 7 | 2.17 | 14500 | 941 | 2.17
10 | COc1ccccc1CCNc1nc(C)cc(N[C@@H](Cc2ccccc2)C(=O)NCc2cccc(F)c2)n1 [TCMDC-134893] | 1.19 | 5.3 | 6300 | 867 | 
11 | CCCCCOc1ccc(C(O)C(CCC(CN2CCCCCC2)C(O)c2ccc(OCCCCC)cc2)CN2CCCCCC2)cc1 (stereo not drawn) [TCMDC-124174] | 5.67 | 1.2 | 6800 | 768 | 
12 | CN(CCCCN)Cc1ccc(-c2ccc(Cl)cc2)cc1 [TCMDC-140123] | 10 | 0.41 | 3990 | 882 | 0.413
13 | CCCCCCCN1CC[C@@H](CCCc2ccnc3ccc(OCCC4CCNCC4)cc23)[C@@H](CC)C1 [TCMDC-139819] | 11 | 0.42 | 4500 | 610 | 0.415
14 | CC(Cc1ccc(CNC(=O)NCc2ccc(CC(C)NCCc3cccc(Cl)c3)cc2)cc1)NCCc1cccc(Cl)c1 (stereo not drawn) [TCMDC-139648] | 7 | 0.61 | 4180 | 685 | 
15 | CCCCCCOc1ccc2ccccc2c1CNCCCCCCNCc1c(OCCCCCC)ccc2ccccc12 [TCMDC-137963] | 7 | 0.48 | 3300 | 1060 | 
16 | CC(C)CNCc1cccc(-c2cccc(CN(CCCN3CCN(C)CC3)C(=O)CCC3CCCC3)c2)c1 [TCMDC-140554] | 7.58 | 0.6 | 4550 | 624 | 
17 | COc1ccc2ccccc2c1CNCCCCCCNCc1c(OC)ccc2ccccc12 [TCMDC-137915] | 14 | 0.25 | 3590 | 712 | 0.253
18 | CCOc1c(CCNCCCCNCCc2ccc3ccccc3c2OCC)ccc2ccccc12 [TCMDC-137759] | <9 | 0.17 | < 1560 | 596 | 0.173
19 | C=CCC1OC(=O)c2cc(OC)cc(OC)c21 (stereo not drawn) [TCMDC-138677] | <2.6 | 0.6 | < 1560 | 343 | 
20 | CCCCCCN=C(N)c1ccc(OCCCCCOc2ccc(C(N)=NCCCCCC)cc2)cc1 [TCMDC-137619] | 17 | 0.31 | 5390 | 309 | 0.309
21 | c1ccc2c(CNCCCN3CCN(CCCNCc4c5ccccc5cc5ccccc45)CC3)c3ccccc3cc2c1 [TCMDC-137909] | 60 | 0.11 | 6280 | 182 | 0.105
22 | CN1CCN(c2nsc3ccc(-c4ccc(NC(=O)Nc5cc(C(F)(F)F)ccc5F)cc4)cc23)CC1 [TCMDC-133435] | 0.851 | 7.52 | 6400 | 245 | 

Row | Compound | Ratio IC50 HepG2/IC50 P. falciparum [1] | IC50 [1, 3] [µM] | IC50 (HepG2 cells) [nM] | IC50 [2] [nM] | IC50 [1, 4] [µM]
23 | CCc1c(CCNCCCCCCNC(C)Cc2ccc3c(c2CC)OCO3)ccc(OC)c1OC (stereo not drawn) [TCMDC-132052] | 10 | 0.33 | 3100 | 870 | 0.325
24 | Cc1nc(-c2cccc(Nc3ccnc4cc(-c5nccs5)ccc34)c2)no1 [TCMDC-138334] | 25 | 0.3 | 7620 | 322 | 
25 | C=CCOc1ccc2ccccc2c1CNCCCCCCNCc1c(OCC=C)ccc2ccccc12 [TCMDC-137340] | <6 | 0.25 | < 1560 | 859 | 
26 | COc1cc2ccccc2c(CNCCCCCCNCc2c(OC)c(OC)cc3ccccc23)c1OC [TCMDC-137795] | 4.5 | 1.05 | 4700 | 1110 | 1.04
27 | CCCCOc1cc(OC)c2ccccc2c1CCNCCCCNCCc1c(OCCCC)cc(OC)c2ccccc12 [TCMDC-137845] | 6 | 0.5 | 3000 | 1050 | 
28 | CC1(C)CC(NCCCCCCCOc2ccc(OCc3ccccc3)cc2)CC(C)(C)N1 [TCMDC-138958] | 4.41 | 0.68 | 3000 | 827 | 
29 | CC(Cc1ccc(COc2ccc(CC(CO)NCCc3cccc(Cl)c3)cc2)cc1)NCCc1cccc(Cl)c1 (stereo not drawn) [TCMDC-139844] | 2.53 | 1.39 | 3500 | 821 | 1.39
30 | CSc1ccc2ccccc2c1CCNCCCCNCCc1c(SC)ccc2ccccc12 [TCMDC-137763] | 7 | 0.23 | 1650 | 408 | 
31 | CCn1c(-c2nonc2N)nc2c(-c3cccc(NC(=O)Nc4ccccc4OC)c3)ncc(OCCCN)c21 [TCMDC-136190] | 14 | 0.44 | 5900 | 1000 | 0.435
32 | O=C(CC1CCCC1)N(Cc1ccc(-c2ccc(CNC3Cc4ccccc4C3)cc2)cc1)CC1CCCCN1 (stereo not drawn) [TCMDC-141446] | 6.45 | 1 | 6470 | 1060 | 1
33 | COc1cccc(CCNCCCCCCNCCc2ccc(Cl)cc2)c1 [TCMDC-131284] | 12 | 0.53 | 6100 | 1010 | 
34 | O=C(Nc1ccc(Cl)c(Cl)c1)Nc1ccccc1N1CCNCC1 [TCMDC-133727] | 1.51 | 7.42 | 11200 | 709 | 
35 | CCc1c(CCNCCCC(C)CCNCCc2ccc(OC)c(OC)c2CC)ccc(OC)c1OC (stereo not drawn) [TCMDC-132065] | 13 | 0.45 | 6000 | 1110 | 0.453
36 | CC(C)(C)N1CCC(N(Cc2ccc(-c3ccc(C(F)(F)F)cc3)cc2)C(=O)Cn2c(CCc3cccc(F)c3F)cc(=O)c3cccnc32)CC1 [TCMDC-136011] | 1.3 | 2.39 | 3100 | 705 | 
37 | Cc1ccc2nc(C)cc(N/N=C/c3ccc([N+](=O)[O-])cc3)c2c1 [TCMDC-142070] | 0.0202 | 9.41 | 190 | 793 | 
38 | O=C(Nc1ccc(F)c(C(F)(F)F)c1)NC1CCN(CCCCCNC(=O)C2CC2c2ccc(Cl)c(Cl)c2)CC1 (stereo not drawn) [TCMDC-136259] | 1.47 | 4.35 | 6400 | 663 | 
39 | COc1cc2ccccc2c(OC)c1CCNCCCCNCCc1c(OC)cc2ccccc2c1OC [TCMDC-137842] | 10 | 0.31 | 3200 | 891 | 0.305
40 | CN(C)CCN(C)Cc1cccc(-c2ccc3c(Nc4ccc(F)cc4Cl)ccnc3c2)c1 [TCMDC-138416] | 7.5 | 0.48 | 3600 | 110 | 
41 | CN(C)CCN(Cc1ccccc1-c1ccc(CNCCc2ccccc2)cc1)C(=O)c1ccccc1 [TCMDC-140532] | 10 | 0.78 | 7540 | 1700 | 
42 | O=S(=O)(NCCN1CCCC1)c1cccc(-c2ccc(CNCc3ccc(F)cc3)cc2)c1 [TCMDC-132289] | 2.75 | 2.69 | 7400 | 234 | 
43 | ON=C1CCc2cc(-c3cc(-c4ccc(OC5CCNCC5)cc4)oc3-c3ccncc3)ccc21 [TCMDC-141381] | 28 | 0.27 | 7500 | 157 | 
